Laboratory results reported in publication PMC3985444 (Journal of Chemical Information and Modeling, 2014).

Experiments:
[1] = tested on: 5-HT2A; details: cited from earlier work
[2] = tested on: dopamine receptors; details: cited from earlier work
[3] = molecular target: T1, human 5-HT1A receptor (Homo sapiens, UniProt P08908); assay: Radioligand competition binding assay
T1 sequence (P08908 1-422): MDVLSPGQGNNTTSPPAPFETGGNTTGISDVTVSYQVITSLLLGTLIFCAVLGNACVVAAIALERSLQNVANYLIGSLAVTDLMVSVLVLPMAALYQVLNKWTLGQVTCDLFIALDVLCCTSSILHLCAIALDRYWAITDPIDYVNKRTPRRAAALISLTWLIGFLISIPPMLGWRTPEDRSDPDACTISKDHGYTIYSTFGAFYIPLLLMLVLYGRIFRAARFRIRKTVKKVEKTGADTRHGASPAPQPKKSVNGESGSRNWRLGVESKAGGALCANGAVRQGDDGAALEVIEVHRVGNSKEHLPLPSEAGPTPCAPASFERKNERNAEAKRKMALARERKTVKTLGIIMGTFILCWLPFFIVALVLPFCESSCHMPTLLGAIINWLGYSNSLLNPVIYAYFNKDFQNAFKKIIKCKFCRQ

[4] = tested on: 5-HT1B; details: cited from earlier work
[5] = tested on: 5-HT1D; details: cited from earlier work

SMILES | binding with 5-HT2A [1] | binding with dopamine receptors [2] | Ki [3] | binding to 5-HT1B [4] | binding to 5-HT1D [5]
CN1CCCCC1CCN1c2ccccc2Sc2ccc([S+](C)[O-])cc21 (stereo not shown) [Mesoridazine] | potent binding | potent binding | 33.1 nM |  | 
CN1C[C@@H](CO)C=C2c3cccc4[nH]cc(c34)C[C@H]21 [ST057540, [(8α)-6-methyl-9,10-didehydroergolin-8-yl]methanol] |  |  | 2.3 nM | high-affinity binding | high-affinity binding
CC[C@@H](CO)NC(=O)[C@@H]1C=C2c3cccc4c3c(cn4C)C[C@H]2N(C)C1 [Methysergide] |  |  | 26 nM |  | 
